From the NIST ThermoML archive (doi:10.1021/je300938w)
± gives the expanded uncertainty stated by the source.

assay: wn = mass fraction of the nth substance listed; conditions: 343.15 K; 101 kPa; Liquid; Concentric cylinders viscometry; w1 = 0.2

SMILES	viscosity
OCCNCCO [diethanolamine] + O	0.7459 ± 0.0065 mPa·s

same assay, conditions: 343.15 K; 101 kPa; Liquid; Concentric cylinders viscometry; w1 = 0.25

SMILES	viscosity
CC(O)CN (stereo unspecified) [1-amino-2-propanol] + O	0.8266 ± 0.007 mPa·s
CC(O)CNCC(C)O (stereo unspecified) [N-(2-hydroxypropyl)-2-hydroxy-1-propanamine] + O	0.9579 ± 0.0075 mPa·s
OCCNCCO [diethanolamine] + O	0.8922 ± 0.0068 mPa·s

same assay, conditions: 343.15 K; 101 kPa; Liquid; Vibrating tube method; w1 = 0.05

SMILES	mass density
CC(O)CN (stereo unspecified) [1-amino-2-propanol] + O	978.537 ± 0.048 kg/m3
CC(O)CNCC(C)O (stereo unspecified) [N-(2-hydroxypropyl)-2-hydroxy-1-propanamine] + O	980.387 ± 0.048 kg/m3
OCCNCCO [diethanolamine] + O	983.659 ± 0.047 kg/m3

same assay, conditions: 343.15 K; 101 kPa; Liquid; Vibrating tube method; w1 = 0.1

SMILES	mass density
CC(O)CN (stereo unspecified) [1-amino-2-propanol] + O	978.237 ± 0.057 kg/m3
CC(O)CNCC(C)O (stereo unspecified) [N-(2-hydroxypropyl)-2-hydroxy-1-propanamine] + O	982.81 ± 0.056 kg/m3
OCCNCCO [diethanolamine] + O	988.796 ± 0.046 kg/m3

same assay, conditions: 343.15 K; 101 kPa; Liquid; Vibrating tube method; w1 = 0.15

SMILES	mass density
CC(O)CN (stereo unspecified) [1-amino-2-propanol] + O	977.785 ± 0.069 kg/m3
CC(O)CNCC(C)O (stereo unspecified) [N-(2-hydroxypropyl)-2-hydroxy-1-propanamine] + O	985.138 ± 0.067 kg/m3
OCCNCCO [diethanolamine] + O	993.878 ± 0.045 kg/m3

same assay, conditions: 343.15 K; 101 kPa; Liquid; Vibrating tube method; w1 = 0.2

SMILES	mass density
CC(O)CN (stereo unspecified) [1-amino-2-propanol] + O	977.354 ± 0.084 kg/m3
CC(O)CNCC(C)O (stereo unspecified) [N-(2-hydroxypropyl)-2-hydroxy-1-propanamine] + O	987.241 ± 0.081 kg/m3
OCCNCCO [diethanolamine] + O	999.25 ± 0.045 kg/m3

same assay, conditions: 343.15 K; 101 kPa; Liquid; Vibrating tube method; w1 = 0.25

SMILES	mass density
CC(O)CN (stereo unspecified) [1-amino-2-propanol] + O	977.059 ± 0.1 kg/m3
CC(O)CNCC(C)O (stereo unspecified) [N-(2-hydroxypropyl)-2-hydroxy-1-propanamine] + O	989.434 ± 0.1 kg/m3
OCCNCCO [diethanolamine] + O	1004.41 ± 0.047 kg/m3

assay: refractive index (Na D-line) (dimensionless); wn = mass fraction of the nth substance listed; conditions: 298.15 K; 101 kPa; Liquid; Standard Abbe refractometry; w1 = 0.05

SMILES	refractive index
CC(O)CN (stereo unspecified) [1-amino-2-propanol] + O	1.33891 ± 0.00031
CC(O)CNCC(C)O (stereo unspecified) [N-(2-hydroxypropyl)-2-hydroxy-1-propanamine] + O	1.34052 ± 0.00031
OCCNCCO [diethanolamine] + O	1.3394 ± 0.00031

same assay, conditions: 298.15 K; 101 kPa; Liquid; Standard Abbe refractometry; w1 = 0.1

SMILES	refractive index
CC(O)CN (stereo unspecified) [1-amino-2-propanol] + O	1.34586 ± 0.00032
CC(O)CNCC(C)O (stereo unspecified) [N-(2-hydroxypropyl)-2-hydroxy-1-propanamine] + O	1.34766 ± 0.00032
OCCNCCO [diethanolamine] + O	1.34654 ± 0.00031

same assay, conditions: 298.15 K; 101 kPa; Liquid; Standard Abbe refractometry; w1 = 0.15

SMILES	refractive index
CC(O)CN (stereo unspecified) [1-amino-2-propanol] + O	1.35281 ± 0.00032
CC(O)CNCC(C)O (stereo unspecified) [N-(2-hydroxypropyl)-2-hydroxy-1-propanamine] + O	1.35486 ± 0.00032
OCCNCCO [diethanolamine] + O	1.35439 ± 0.00031

same assay, conditions: 298.15 K; 101 kPa; Liquid; Standard Abbe refractometry; w1 = 0.2

SMILES	refractive index
CC(O)CN (stereo unspecified) [1-amino-2-propanol] + O	1.35955 ± 0.00033
CC(O)CNCC(C)O (stereo unspecified) [N-(2-hydroxypropyl)-2-hydroxy-1-propanamine] + O	1.3621 ± 0.00033
OCCNCCO [diethanolamine] + O	1.36184 ± 0.00031

same assay, conditions: 298.15 K; 101 kPa; Liquid; Standard Abbe refractometry; w1 = 0.25

SMILES	refractive index
CC(O)CN (stereo unspecified) [1-amino-2-propanol] + O	1.36649 ± 0.00033
CC(O)CNCC(C)O (stereo unspecified) [N-(2-hydroxypropyl)-2-hydroxy-1-propanamine] + O	1.36925 ± 0.00033
OCCNCCO [diethanolamine] + O	1.37017 ± 0.00031

same assay, conditions: 303.15 K; 101 kPa; Liquid; Standard Abbe refractometry; w1 = 0.05

SMILES	refractive index
CC(O)CN (stereo unspecified) [1-amino-2-propanol] + O	1.33825 ± 0.00031
CC(O)CNCC(C)O (stereo unspecified) [N-(2-hydroxypropyl)-2-hydroxy-1-propanamine] + O	1.33988 ± 0.00031
OCCNCCO [diethanolamine] + O	1.33875 ± 0.00031

same assay, conditions: 303.15 K; 101 kPa; Liquid; Standard Abbe refractometry; w1 = 0.1

SMILES	refractive index
CC(O)CN (stereo unspecified) [1-amino-2-propanol] + O	1.34506 ± 0.00032
CC(O)CNCC(C)O (stereo unspecified) [N-(2-hydroxypropyl)-2-hydroxy-1-propanamine] + O	1.34693 ± 0.00032
OCCNCCO [diethanolamine] + O	1.34585 ± 0.00031

same assay, conditions: 303.15 K; 101 kPa; Liquid; Standard Abbe refractometry; w1 = 0.15

SMILES	refractive index
CC(O)CN (stereo unspecified) [1-amino-2-propanol] + O	1.35201 ± 0.00032
CC(O)CNCC(C)O (stereo unspecified) [N-(2-hydroxypropyl)-2-hydroxy-1-propanamine] + O	1.35421 ± 0.00032
OCCNCCO [diethanolamine] + O	1.35368 ± 0.00031

same assay, conditions: 303.15 K; 101 kPa; Liquid; Standard Abbe refractometry; w1 = 0.2

SMILES	refractive index
CC(O)CN (stereo unspecified) [1-amino-2-propanol] + O	1.35875 ± 0.00033
CC(O)CNCC(C)O (stereo unspecified) [N-(2-hydroxypropyl)-2-hydroxy-1-propanamine] + O	1.3613 ± 0.00033
OCCNCCO [diethanolamine] + O	1.36108 ± 0.00031

same assay, conditions: 303.15 K; 101 kPa; Liquid; Standard Abbe refractometry; w1 = 0.25

SMILES	refractive index
CC(O)CN (stereo unspecified) [1-amino-2-propanol] + O	1.3656 ± 0.00033
CC(O)CNCC(C)O (stereo unspecified) [N-(2-hydroxypropyl)-2-hydroxy-1-propanamine] + O	1.36822 ± 0.00033
OCCNCCO [diethanolamine] + O	1.36935 ± 0.00031

same assay, conditions: 308.15 K; 101 kPa; Liquid; Standard Abbe refractometry; w1 = 0.05

SMILES	refractive index
CC(O)CN (stereo unspecified) [1-amino-2-propanol] + O	1.33749 ± 0.00031
CC(O)CNCC(C)O (stereo unspecified) [N-(2-hydroxypropyl)-2-hydroxy-1-propanamine] + O	1.33919 ± 0.00031
OCCNCCO [diethanolamine] + O	1.33801 ± 0.00031

same assay, conditions: 308.15 K; 101 kPa; Liquid; Standard Abbe refractometry; w1 = 0.1

SMILES	refractive index
CC(O)CN (stereo unspecified) [1-amino-2-propanol] + O	1.34432 ± 0.00032
CC(O)CNCC(C)O (stereo unspecified) [N-(2-hydroxypropyl)-2-hydroxy-1-propanamine] + O	1.34623 ± 0.00032
OCCNCCO [diethanolamine] + O	1.34511 ± 0.00031

same assay, conditions: 308.15 K; 101 kPa; Liquid; Standard Abbe refractometry; w1 = 0.15

SMILES	refractive index
CC(O)CN (stereo unspecified) [1-amino-2-propanol] + O	1.35092 ± 0.00032
